Values of other authors, collected in patent US6114314A (priority 1994, dated 2000).

Experiments:
macrophages = settings: tissue culture
experiment neoplasm = settings: with Interleukin 2
[1] = in cross-linked hyaluronic acid gel
rabbit eye = settings: in vivo

Row | Compound | malfunction of macrophages (block due to excessive prostaglandin) (macrophages) | other results
1 | CC(=O)Oc1ccccc1C(=O)O [ASA, acetylsalicylic acid] | can be altered | –
2 | COc1ccc2c(c1)c(CC(=O)O)c(C)n2C(=O)c1ccc(Cl)cc1 [indomethacin] | can be altered | cure of experiment neoplasm (experiment neoplasm): could effect a cure
3 | COc1ccc2cc([C@H](C)C(=O)O)ccc2c1 [naproxen] | can be altered | –
4 | heparin | – | antithrombogenic activity [1]: retained its antithrombogenic activity
5 | sodium hyaluronate [sodium hyaluronate (LifeCore)] | – | Biological Safety Testing, Rabbit Ocular Toxicity Test (rabbit eye): Passes
